According to ChEMBL document CHEMBL1128837, “The evaluation of 2- and 6-substituted carbocyclic nucleosides as building blocks for antisense oligonucleotides” (Bioorg Med Chem Lett, 1995):

Experiments:
[1] = Difference in melting temperature (Tm) between the modified DNA/RNA duplex and the unmodified wild type (WT) duplex per modification at 63.9 degree Celsius (5'-CTCGTACCtTTCCGGTCC-3'); assay type: functional
[2] = Stability against degradation by 3'-exonucleases for the sequence 5'-d(TCC AGG TGT CCG TTT C)-3' in 10% heat-activated fetal calf serum (FCS); assay type: functional
[3] = Difference in melting temperature (Tm) between the modified DNA/RNA duplex and the unmodified wild type (WT) duplex per modification at 48 degree Celsius (5'-GCGttttttttttGCG-3'); assay type: functional
[4] = Difference in melting temperature (Tm) between the modified DNA/RNA duplex and the unmodified wild type (WT) duplex per modification at 63.9 degree Celsius (5-ctcGtacctttccGGtcC-3; assay type: functional
[5] = Difference in melting temperature (Tm) between the modified DNA/RNA duplex and the unmodified wild type (WT) duplex per modification at 52.3 degree Celsius (5'-tttttctctctctT-3'); assay type: functional
[6] = Difference in melting temperature (Tm) between the modified DNA/RNA duplex and the unmodified wild type (WT) duplex per modification at 52.3 degree Celsius (5-tttttC*tc*tc*tc*tc*T-3); assay type: functional
[7] = Difference in melting temperature (Tm) between the modified DNA/RNA duplex and the unmodified wild type (WT) duplex per modification at 52.3 degree Celsius (5'-TTTTtCTCTCTCTCT-3'); assay type: functional
[8] = Difference in melting temperature (Tm) between the modified DNA/RNA duplex and the unmodified wild type (WT) duplex per modification at 61.7 degree Celsius (5'-CTCGTACttttCCGGTCC-3'); assay type: functional
[9] = Ratio of effect of compound on the nuclease resistance of full length oligonucleotide to that of wild type in 10% heat-activated fetal calf serum (FCS); assay type: functional
[10] = Difference in melting temperature (Tm) between the modified DNA/RNA duplex and the unmodified wild type (WT) duplex per modification at 61.8 degree Celsius (5'-tCCAGGtGtCCGCAtC-3'); assay type: functional
[11] = Effect of compound on the nuclease resistance of 5'-d(TCC AGG TGT CCG TTT C)-3' in 10% heat-activated fetal calf serum (FCS) expressed as t1/2; assay type: functional
[12] = Effect of compound on the nuclease resistance of wild type 5'-d(TCC AGG TGT CCG TTT C)-3' in 10% heat-activated fetal calf serum (FCS) expressed as t1/2; assay type: functional
[13] = Difference in melting temperature (Tm) between the modified DNA/RNA duplex and the unmodified wild type (WT) duplex per modification at 52.3 degree Celsius (5-tttttc*tc*tc*tc*tc*T-3); assay type: functional
[14] = Melting temperature (Tm) of the modified DNA/RNA duplex at 48 degree Celsius (5'-GCGttttttttttGCG-3')
[15] = Melting temperature (Tm) of the modified DNA/RNA duplex at 48 degree Celsius (5'-GCGtttttttttGCG-3'); No cooperative melting observed

Compound | ΔTm [1] | ΔTm [2] | ΔTm [3] | ΔTm [4] | ΔTm [5] | ΔTm [6] | ΔTm [7] | ΔTm [8] | Ratio [9] | ΔTm [10] | T1/2 [11] [h] | T1/2 [12] [h] | ΔTm [13] | Tm [14] [°C] | Tm [15] [°C]
Cc1cn([C@H]2C[C@H](O)[C@@H](CO)O2)c(=O)[nH]c1=O | 0.2 | 2.5 | 0.25 | 0.3 | 0.4 | – | – | – | – | – | – | – | – | – | –
COCCOCCO[C@H]1[C@H](CO)[C@@H](O)C[C@@H]1n1cc(C)c(=O)[nH]c1=O | – | – | – | – | – | -1.9 | -1.8 | – | – | – | – | – | – | – | –
CO[C@@H]1[C@H](O)[C@@H](CO)C[C@H]1n1cc(C)c(=O)[nH]c1=O | -1.9 | – | -1 | – | – | – | 1.1 | -0.7 | – | – | – | – | – | – | –
Cc1cn([C@H]2C[C@H](O)[C@@H](CO)[C@@H]2OCCCCN)c(=O)[nH]c1=O | -1.8 | – | -1.9 | – | – | – | -1.1 | – | > 24 | -1.4 | > 48 | 2 | – | – | –
Cc1cn([C@H]2C[C@H](O)[C@@H](CO)[C@@H]2O)c(=O)[nH]c1=O | – | – | 0.8 | – | – | – | -0.8 | 0.2 | 7 | -0.4 | 14 | 2 | 0.4 | – | –
COCCOCCOCCO[C@@H]1[C@H](O)[C@@H](CO)C[C@H]1n1cc(C)c(=O)[nH]c1=O | -2.9 | – | – | – | – | – | 0.2 | -2.6 | – | -1.1 | – | – | – | < 20 | –
Cc1cn([C@H]2C[C@H](O)[C@@H](CO)[C@@H]2OCCCc2ccccc2)c(=O)[nH]c1=O | -2.8 | – | – | – | – | – | -4 | -1.7 | > 24 | -2.8 | > 48 | 2 | – | < 20 | < 20
CO[C@H]1[C@H](CO)[C@@H](O)C[C@@H]1n1cc(C)c(=O)[nH]c1=O | 0.2 | – | -0.9 | – | – | – | -2 | -0.7 | 10 | -1.3 | 20 | 2 | – | – | –
